Columns and labels:
mouse peritoneal PMNs = test: ROS chemiluminescence of PMA-activated PMNs, L-012 vs. luminol; type: cell-based; details: 1×10^6 PMNs, 2 mM probe; for chemiluminescence emission with PMA activation: PMA (6.5 nM)
Procedure: The ROS measurements were initiated by adding 10 μl of PMA (6.5 nM) at room temperature. Chemiluminescence images 410, 420 were captured with a 5 minute acquisition time using a Kodak In Vivo FX Pro system (f/stop, 2.5; no optical filter, 4×4 binning).

[1] = system: hypertension-suffering eye; test: in vivo oxidative stress imaging of mouse eyes; details: L-012 10 μL, 15 mg/mL topically on eyes
Procedure: Referring now to FIG. 5, subsequent studies were carried out to evaluate the feasibility of L-012 for in vivo oxidative stress imaging. L-012 (10 μL, 15 mg/mL) was topically dropped on a mouse's eyes with hypertension-suffering left eye 510 or control right eye 520. The animal was sedated and then imaged with a Kodak in vivo FX imaging system, resulting in image 500. A strong bioluminescence signal was found in the hypertension-suffering left eye 510, while control right eye 520 emitted low or no chemiluminescence.

[2] = system: isolated neutrophils (PMNs); test: detection of ROS generated by isolated PMA-activated neutrophils with nanoprobes; type: cell-based; details: 5 mM Tempol; fluorescence signal remained constant
Procedure: A number of PMN (5×10^4 to 1×10^6) were incubated in 0.25 ml of 0.9% NaCl solution containing 10 mM phosphate buffer (pH 7.4), 6 mM KCl, and 6 mM MgCl2 in the presence of the nanoprobes (10 μl, 0.5 mg/ml). After incubation of the mixture for 3 min at 37° C., the reaction were initiated by adding 6 nM phorbol 12-myristate 13-acetate (PMA). During the incubation, chemiluminescence and fluorescence intensities were recorded continuously for 60 minutes using a microplate reader.
To verify whether the chemiluminescence signals resulted from ROS generated by activated PMNs, similar PMN-mediated chemiluminescence measurements were carried out in the presence or absence of Tempol, a superoxide dismutase mimetic/ROS neutralizer.

Compound | chemiluminescence emission with PMA activation (mouse peritoneal PMNs) | signal enhancement in hypertension-suffering eye vs control eye [1] | chemiluminescence signal intensity relative to luminol (mouse peritoneal PMNs; PMA activation, 5 minute acquisition) | PMN-mediated chemiluminescence intensity in the presence of Tempol [2]
1,4-phthalazinedione, 5-amino-2,3-dihydro [luminol] | emitted chemiluminescence |  |  | 
Nc1c(-c2ccccc2)nc(Cl)c2c(=O)[nH][nH]c(=O)c12 [L-012, 8-amino-5-chloro-7-phenylpyridol[3,4-d]pyridazine-1,4 (2H,3H)dione] | emitted chemiluminescence | ten-fold | approximately 1000 fold | 
CC1(C)CC(O)CC(C)(C)N1[O] [Tempol] |  |  |  | substantially reduced

— patent US20160106868A1, “OXYGEN FREE RADICAL DETECTION” (Progenitec Inc., priority 2014, published 2016)
